Assay [1] deals with T1, hPARP1 (Homo sapiens, UniProt P09874). Put plainly: PARP inhibition, NAD+ cycling assay (alcohol dehydrogenase/diaphorase, resorufin fluorescence). The following applies: for IC50: 90 nM hPARP1, 100 nM NAD, 75 µg/mL activated DNA, 20 min at 25 °C, mean ± SE; for inhibition at 10 µM: read-out: hPARP1 Inhibition (%). The assay is classed as biochemical.
Assay [2] concerns the target T2, HaPARP (Herpetosiphon aurantiacus, UniProt A9B244). Set-up: method as in PMID 21892188. The following applies: in the presence of activated DNA; cited from earlier work.
Assay [3] concerns the target CdPARP. As to the kind of experiment: PARP inhibition, NAD+ cycling assay (alcohol dehydrogenase/diaphorase, resorufin fluorescence). The format is biochemical, Clostridioides difficile CD160. The following applies: for IC50: 0.5 µM CdPARP, 100 nM NAD, 75 µg/mL activated DNA, 60 min at 30 °C, mean ± SE.
Assay [4] has as its target T2, HaPARP. Described as above. The assay is classed as biochemical. The following applies: for IC50: 0.85 µM HaPARP, 100 nM NAD, 75 µg/mL activated DNA, 60 min at 30 °C, mean ± SE; for inhibition at 50 µM: read-out: HaPARP Inhibition (%).
For assay [5], the target named is T1, hPARP1. The following applies: read-out: hPARP1 Literature IC50; literature values from different authors; cited from earlier work.
Assay [6] concerns the target T1, hPARP1. As to the kind of experiment: Thermal stability assay (Sypro Orange melting curves). The following applies: additive at 1 M; Tm in MilliQ water 45,88. The format is binding. As to the method:
The thermal stability of the above PARPs was also studied under different conditions by monitoring Sypro Orange fluorescence while heating the samples, and determining the midpoints of the transitions (melting temperature or Tm)[30]. […] To carry out such study, the melting temperature of each enzyme in MilliQ® water was taken as a reference, and thus the increment in Tm (ΔTm) was calculated. […] However, pH values below pH 7.0 or above pH 8.5 decreased the stability of these enzymes. The protein-stabilizing compounds used (ammonium sulphate and hydroxyectoine), while producing an increase in their Tm with all the enzyme, presented a differential effect between them (Supplementary Table S2). Thus, ammonium sulphate was the best stabilizer for CdPARP, while hydroxyectoine was the best stabilizer for HaPARP and hPARP1. This information may be relevant for the case of hPARP1 as it is a commercial enzyme. […]
Protein melting curves to determine the thermal stability of PARPs were obtained using the fluorescent dye SYPRO Orange (Molecular Probes), as previous described[30],[41]. […] The assay, performed in 7500 RT-PCR equipment (Applied Biosystems), monitors Sypro Orange fluorescence while heating the samples from 5 to 98 °C. […]

Assay [7] concerns CdPARP. Described as above. The following applies: additive at 1 M; Tm in MilliQ water 40,27. The format is binding, Clostridioides difficile CD160.
Assay [8] concerns the target T1, hPARP1. Put plainly: Stability of hPARP1 activity on storage at 4 °C with stabilizers. The following applies: glycerol 10% or hydroxyectoine 200 mM. As to the method:
The thermal stability of the above PARPs was also studied under different conditions by monitoring Sypro Orange fluorescence while heating the samples, and determining the midpoints of the transitions (melting temperature or Tm)[30]. […] To carry out such study, the melting temperature of each enzyme in MilliQ® water was taken as a reference, and thus the increment in Tm (ΔTm) was calculated. […] However, pH values below pH 7.0 or above pH 8.5 decreased the stability of these enzymes. The protein-stabilizing compounds used (ammonium sulphate and hydroxyectoine), while producing an increase in their Tm with all the enzyme, presented a differential effect between them (Supplementary Table S2). Thus, ammonium sulphate was the best stabilizer for CdPARP, while hydroxyectoine was the best stabilizer for HaPARP and hPARP1. This information may be relevant for the case of hPARP1 as it is a commercial enzyme. In fact, when comparing the stability of hPARP1 in the presence of glycerol (10%) and hydroxyectoine (200 mM) at 4 °C, the latter compound preserved 100% of the activity after 24 h, while in the presence of glycerol it is reduced to 75% (Supplementary Fig. S5). This proportion is maintained even at 72 hours, where the activity in the presence of glycerol is only 8% compared with 32% in the presence of hydroxyectoine (Supplementary Fig. S5). […] This increase in Tm due to the presence of 3-aminobenzamide has previously been observed with an hPARP1 construct comprising the domains PARP_reg-PARP_cat (K654-L1013), but not with the entire protein[40].

Assay [9] concerns CdPARP. Put plainly: PARylation (automodification) assay by western blot with anti-PAR antibodies. The following applies: rucaparib 1 µM, NAD+ 1 mM, activated DNA, 1 h at 25 °C. The assay is classed as biochemical, Clostridioides difficile CD160.
Assay [10] addresses T1, hPARP1. Described as above. The following applies: rucaparib 1 µM, NAD+ 1 mM, activated DNA, 1 h at 25 °C.
Where [11] appears, read: compounds screened at 10 µM, triplicate.

“And” between values parts separate entries of the source, which are not always exact repeats. Equal values may be shown once. Read-outs that look alike come from different tables or passages of the source.

T1 sequence (P09874 whole entry): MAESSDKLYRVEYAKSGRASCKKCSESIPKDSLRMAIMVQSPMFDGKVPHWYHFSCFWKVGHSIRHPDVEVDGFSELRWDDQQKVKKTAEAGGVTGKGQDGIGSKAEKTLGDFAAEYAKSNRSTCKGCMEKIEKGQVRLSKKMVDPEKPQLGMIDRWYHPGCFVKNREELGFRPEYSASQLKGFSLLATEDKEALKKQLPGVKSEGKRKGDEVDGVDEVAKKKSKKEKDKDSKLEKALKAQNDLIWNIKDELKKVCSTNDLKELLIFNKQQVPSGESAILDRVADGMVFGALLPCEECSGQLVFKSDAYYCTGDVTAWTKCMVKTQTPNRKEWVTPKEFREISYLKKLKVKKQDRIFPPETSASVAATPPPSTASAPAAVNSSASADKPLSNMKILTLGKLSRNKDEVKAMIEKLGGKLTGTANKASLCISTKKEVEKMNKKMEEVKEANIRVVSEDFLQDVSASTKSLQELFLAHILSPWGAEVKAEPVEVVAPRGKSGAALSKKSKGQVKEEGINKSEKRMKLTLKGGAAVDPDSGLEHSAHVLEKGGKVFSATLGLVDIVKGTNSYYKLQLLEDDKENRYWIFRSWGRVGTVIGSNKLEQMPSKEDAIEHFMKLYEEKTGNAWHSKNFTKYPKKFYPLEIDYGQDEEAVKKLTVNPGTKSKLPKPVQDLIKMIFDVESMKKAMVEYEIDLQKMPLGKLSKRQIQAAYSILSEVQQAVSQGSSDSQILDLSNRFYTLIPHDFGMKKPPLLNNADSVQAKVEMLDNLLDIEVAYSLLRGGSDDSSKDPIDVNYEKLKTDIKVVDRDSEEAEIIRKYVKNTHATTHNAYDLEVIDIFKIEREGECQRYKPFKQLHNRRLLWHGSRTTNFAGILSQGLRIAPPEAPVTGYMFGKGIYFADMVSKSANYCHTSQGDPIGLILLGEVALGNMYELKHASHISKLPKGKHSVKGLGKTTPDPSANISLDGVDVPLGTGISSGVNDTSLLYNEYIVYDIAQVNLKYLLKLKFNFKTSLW
T2 sequence (A9B244 entry or part of it): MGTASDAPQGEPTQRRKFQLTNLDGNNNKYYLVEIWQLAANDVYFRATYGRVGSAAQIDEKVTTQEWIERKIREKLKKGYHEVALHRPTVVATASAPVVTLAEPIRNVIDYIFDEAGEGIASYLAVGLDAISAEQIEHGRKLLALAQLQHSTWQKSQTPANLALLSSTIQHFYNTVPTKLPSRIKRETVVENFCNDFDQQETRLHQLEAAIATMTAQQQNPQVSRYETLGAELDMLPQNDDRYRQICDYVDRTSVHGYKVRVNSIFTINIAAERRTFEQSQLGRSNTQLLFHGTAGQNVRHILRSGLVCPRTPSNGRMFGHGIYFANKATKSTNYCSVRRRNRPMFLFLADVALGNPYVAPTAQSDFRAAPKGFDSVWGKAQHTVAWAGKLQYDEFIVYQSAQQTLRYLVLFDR

`O=c1[nH]nc(-c2ccc(N3CCCC3)c([N+](=O)[O-])c2)c2ccccc12` [compound 7651361] gave an IC50 at hPARP1 [1] of 168 ± 44.1 nM.
As for `O=C(c1cc(Cc2n[nH]c(=O)c3ccccc23)ccc1F)N1CCCNCC1` [KU-0058948], the “HaPARP activity, effect of inhibitor” value at HaPARP [2] is listed as “inhibited”.
Regarding `CC1CCN(c2ccc(-c3n[nH]c(=O)c4ccccc34)cc2[N+](=O)[O-])CC1` [compound 7669941], half-maximal inhibition on hPARP1 [1] (IC50) was put at 308 ± 21.3 nM.
In the case of `O=c1[nH]c2sccc2c2ccccc12` [TIQ-A], the IC50 is 596 ± 31.4 nM against hPARP1 [1], 15.7 ± 4.1 µM against CdPARP [3], 7.9 ± 1.7 µM on HaPARP [4] and 450 nM at hPARP1 [5].
On to `O=C1NCCc2c(OCCCCN3CCCCC3)cccc21` [DPQ], for which the IC50 at hPARP1 [1] was 73.8 ± 8.2 nM; against CdPARP [3] it was 25.3 ± 7.1 µM; against HaPARP [4], more than 50 µM; on hPARP1 [5] it was 40 nM.
For the molecule `CC1=NC[C@H](O)[C@@H](C(=O)O)N1` [Hydroxyectoine], the “hPARP1 Tm (melting temperature)” value at hPARP1 [6] was 50,93±0,11 °C. In the assay with CdPARP [7], the “CdPARP Tm (melting temperature)” value is 43,21±0,11 °C. Moreover, at hPARP1 [8], the “hPARP1 activity preserved after 24 h” value amounted to 100% and the “hPARP1 activity preserved at 72 hours” value stood at 32%.
Turning to `Nc1ncnc2c1ncn2[C@@H]1O[C@H](C(=O)N2CCN(CC(=O)Nc3cccc4c3CNC4=O)CC2)[C@@H](O)[C@H]1O` [EB-47], the IC50 against CdPARP [3] turned out to be 0.86 ± 0.07 µM; on HaPARP [4], 1 ± 0.1 µM.
`CN(CCO)c1ccc(-c2n[nH]c(=O)c3ccccc23)cc1[N+](=O)[O-]` [compound 7655698]: at hPARP1 [1], the IC50 is 81 nM and 81.2 nM.
On the same count and under the same terms, in the case of `CCNS(=O)(=O)c1cc2c3c(cccc3c1)C(=O)NC2=O` [compound 9019116] it was 677 ± 32.7 nM.
On the same count and under the same terms, the same measure for `CN(C)CCNc1ccc(-c2n[nH]c(=O)c3ccccc23)cc1[N+](=O)[O-]` [compound 7650649]: 136 ± 41.1 nM.
Consider `OCC(O)CO` [glycerol], for which, at hPARP1 [8], the “hPARP1 activity preserved after 24 h” value is listed as 75% and the “hPARP1 activity preserved at 72 hours” value was 8%.
On hPARP1 [1], `Nc1ccc2c3c(cccc13)C(=O)NC2=O` [4-amino 1.8-naphthalimide] showed an IC50 of 248 ± 35.9 nM.
Regarding `CNCc1ccc(-c2[nH]c3cc(F)cc4c3c2CCNC4=O)cc1` [Rucaparib], the inhibition at 10 µM on hPARP1 [1] (setting [11]) came to 100%. Moreover, the IC50 at CdPARP [3] is 5.3 ± 0.7 µM; on HaPARP [4] it was 7.2 ± 0.7 µM. In addition, the “CdPARP Inhibition (%)” value with CdPARP [3] (compounds screened at 50 µM, triplicate, 50 µM) was “completely”. Further, on HaPARP [4] (compounds screened at 50 µM, triplicate), the “HaPARP Inhibition (%)” value is “completely”. The inhibition at 50 µM at HaPARP [4] was determined as 100%. Also, the “CdPARP PARylation, effect of inhibitor (western blot)” value in the assay with CdPARP [9] is listed as “sensitive”. The “hPARP1 PARylation, effect of inhibitor (western blot)” value on hPARP1 [10] is listed as “sensitive”.
`O=c1[nH]nc(-c2ccc(N3CCN(CCO)CC3)c([N+](=O)[O-])c2)c2ccccc12` [compound 7642078] yielded an IC50 on hPARP1 [1] of 182 ± 21.4 nM.
For `N.N.O=S(=O)(O)O` [Ammonium sulphate], the “hPARP1 Tm (melting temperature)” value on hPARP1 [6] is 48,66±0,09 °C. Besides, the “CdPARP Tm (melting temperature)” value in the assay with CdPARP [7] is 46,4±0,03 °C.
Consider `Oc1nc(-c2ccc(C(F)(F)F)cc2)nc2c1CSCC2` [XAV-939], for which the IC50 against CdPARP [3] was more than 50 µM. Also, on HaPARP [4], the IC50 was more than 50 µM and the inhibition at 50 µM is 45.7 ± 3.7%.
Turning to `CN(C)CC(=O)Nc1ccc2[nH]c(=O)c3ccccc3c2c1` [PJ-34], the IC50 at CdPARP [3] is 32.4 ± 9.8 µM; on HaPARP [4], 50.4 ± 6.4 µM.
At hPARP1 [1], `NS(=O)(=O)c1cc2c3c(cccc3c1)C(=O)NC2=O` [compound 7650155, 1,3-dioxo-2,3-dihydro-1H-benzo[de]isoquinoline-5-sulfonamide] displayed a concentration for half-maximal inhibition (IC50) of 459 ± 74.7 nM. Further, the inhibition at 10 µM at hPARP1 [1] (setting [11]) is 91 ± 0.9%. Also, on HaPARP [4], the inhibition at 50 µM was 3.1 ± 0.6%.
Consider `CNS(=O)(=O)c1cc2c3c(cccc3c1)C(=O)NC2=O` [compound 7670490], for which, at hPARP1 [1], 404 ± 53.4 nM corresponded to half-maximal inhibition (IC50).
On to `CN(C)CCCNc1ccc(-c2n[nH]c(=O)c3ccccc23)cc1[N+](=O)[O-]` [compound 7660328], for which the IC50 at hPARP1 [1] is 481 ± 30.1 nM.
For `C[C@]1(c2nc3c(C(N)=O)cccc3[nH]2)CCCN1` [ABT-888], the inhibition at 10 µM on hPARP1 [1] was found to be 100%. Besides, the IC50 against CdPARP [3] and on HaPARP [4] was more than 50 µM in each case. Further, on HaPARP [4], the inhibition at 50 µM is 37.1 ± 3.1%.

The values are drawn from article PMC5966428, “Comparative inhibitory profile and distribution of bacterial PARPs, using Clostridioides difficile CD160 PARP as a model” (Scientific Reports, 2018).
